Our source for the IC50 values is BindingDB's records for doi:10.1016/j.bmcl.2009.07.083 (Bristol-Myers Squibb, 2009).

The target in the test is Potassium voltage-gated channel subfamily A member 5 (Homo sapiens, UniProt P22460). Description: Inhibition of human Kv1.5 channel expressed in mouse L929 cells.
Sequence of Potassium voltage-gated channel subfamily A member 5 (P22460 whole entry): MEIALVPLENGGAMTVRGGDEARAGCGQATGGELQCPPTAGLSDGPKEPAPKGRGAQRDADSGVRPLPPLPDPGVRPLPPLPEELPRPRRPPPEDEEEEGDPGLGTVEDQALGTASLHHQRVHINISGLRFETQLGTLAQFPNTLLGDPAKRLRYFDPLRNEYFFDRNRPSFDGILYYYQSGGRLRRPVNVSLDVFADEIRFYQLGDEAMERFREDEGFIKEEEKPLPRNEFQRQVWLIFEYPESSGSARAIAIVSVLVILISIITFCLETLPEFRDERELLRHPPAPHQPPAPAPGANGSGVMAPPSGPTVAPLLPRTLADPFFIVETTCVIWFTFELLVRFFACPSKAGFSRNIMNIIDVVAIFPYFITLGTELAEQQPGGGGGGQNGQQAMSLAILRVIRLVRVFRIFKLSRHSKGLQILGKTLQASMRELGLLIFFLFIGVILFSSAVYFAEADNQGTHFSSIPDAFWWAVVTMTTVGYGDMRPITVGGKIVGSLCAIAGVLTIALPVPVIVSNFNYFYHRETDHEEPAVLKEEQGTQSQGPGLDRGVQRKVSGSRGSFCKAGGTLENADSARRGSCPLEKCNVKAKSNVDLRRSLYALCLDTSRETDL
`CC1=Nc2ccnn2C(c2ccc(Cl)c(Cl)c2)C1c1nc2cc(S(=O)(=O)Nc3ccccc3)ccc2n1C` (centres undefined) [2-(7-(3,4-dichlorophenyl)-5-methyl-4,7-dihydropyrazolo[1,5-a]pyrimidin-6-yl)-1-methyl-N-phenyl-1H-benzo[d]imidazole-5-sulfonamide] had an IC50 of over 1 µM. `CC1=Nc2ccnn2C(c2ccc(Cl)c(Cl)c2)C1c1nnc(-c2ccccc2)o1` (centres undefined) [2-(7-(3,4-dichlorophenyl)-5-methyl-4,7-dihydropyrazolo[1,5-a]pyrimidin-6-yl)-5-phenyl-1,3,4-oxadiazole] returned an IC50 of over 1 µM.

`CC1=Nc2ccnn2C(c2ccc(Cl)c(Cl)c2)C1c1ncc(-c2ccccc2)o1` (centres undefined) [2-(7-(3,4-dichlorophenyl)-5-methyl-4,7-dihydropyrazolo[1,5-a]pyrimidin-6-yl)-5-phenyloxazole] showed an IC50 of over 1 µM. `CCCCc1nnc(C2C(C)=Nc3ccnn3C2c2ccc(Cl)c(Cl)c2)o1` (centres undefined) [2-butyl-5-(7-(3,4-dichlorophenyl)-5-methyl-4,7-dihydropyrazolo[1,5-a]pyrimidin-6-yl)-1,3,4-oxadiazole] gave an IC50 of over 1 µM. Then `CC1=Nc2ccnn2C(c2ccc(Cl)c(Cl)c2)C1c1nc2cc(S(C)(=O)=O)ccc2n1C` (centres undefined) [7-(3,4-dichlorophenyl)-5-methyl-6-(1-methyl-5-(methylsulfonyl)-1H-benzo[d]imidazol-2-yl)-4,7-dihydropyrazolo[1,5-a]pyrimidine], with over 1 µM; and `CC1=Nc2ccnn2C(c2ccc(Cl)c(Cl)c2)C1c1nc2c(C)cccc2[nH]1` (centres undefined) [7-(3,4-dichlorophenyl)-5-methyl-6-(7-methyl-1H-benzo[d]imidazol-2-yl)-4,7-dihydropyrazolo[1,5-a]pyrimidine], with 0.15 µM.

In turn, `CC1=Nc2ccnn2C(c2ccc(Cl)c(Cl)c2)C1c1nc2cc(C)ccc2n1C` (centres undefined) [7-(3,4-dichlorophenyl)-6-(1,5-dimethyl-1H-benzo[d]imidazol-2-yl)-5-methyl-4,7-dihydropyrazolo[1,5-a]pyrimidine] gave a half-maximal inhibitory concentration (IC50) of 0.2 µM. Compound `CC1=Nc2ccnn2C(c2ccc(Cl)c(Cl)c2)C1c1nc2cccc(F)c2n1C` (centres undefined) [7-(3,4-dichlorophenyl)-6-(7-fluoro-1-methyl-1H-benzo[d]imidazol-2-yl)-5-methyl-4,7-dihydropyrazolo[1,5-a]pyrimidine] registered a half-maximal inhibitory concentration (IC50) of 0.15 µM. `CC(=O)Nc1ccc2c(c1)nc(C1C(C)=Nc3ccnn3C1c1ccc(Cl)c(Cl)c1)n2C` (centres undefined) [N-(2-(7-(3,4-dichlorophenyl)-5-methyl-4,7-dihydropyrazolo[1,5-a]pyrimidin-6-yl)-1-methyl-1H-benzo[d]imidazol-5-yl)acetamide] came in with a 50% inhibitory concentration (IC50) of over 1 µM.

The term IC50 denotes the concentration at which inhibition is half-maximal.
